Source: ChEMBL document CHEMBL1201862, “PubChem BioAssay data set” (2004)
Active and inactive are the calls of the source.

Key:
[1] = biological target: T1, E3 ubiquitin-protein ligase XIAP (Homo sapiens, UniProt P98170); assay: Counter Screen using XIAP-Bir3 for Chemical Antagonists of Bir1/2 domains of IAP-family anti-apoptotic proteins. [Related pubchem assays (depositor defined):AID1018, AID1449, AID1514, AID1638, AID1749, AID1750, AID488957, AID488963]
[2] = biological target: T1, E3 ubiquitin-protein ligase XIAP; assay: small molecules displacing peptide from XIAP – biochemical, IAP family, fluorescence polarization (AID 1018); assay type: functional
[3] = biological target: T2, G-protein coupled receptor 35 (Homo sapiens, UniProt Q9HC97); assay: SAR analysis of Agonists of the GPR35 Receptor using an Image-Based Assay - Set 3. [Related pubchem assays (depositor defined):AID1961, AID1965]; assay type: functional
[4] = biological target: T3, Cannabinoid receptor 1 (Homo sapiens, UniProt P21554); assay: SAR analysis of antagonists of the Cannabinoid Receptor 1 using an Image-Based Assay - Set 3. [Related pubchem assays (depositor defined):AID1961, AID1965]; assay type: functional
[5] = biological target: T4, Cannabinoid receptor 2 (Homo sapiens, UniProt P34972); assay: SAR analysis of agonists of the Cannabinoid Receptor 2 using an Image-Based Assay - Set 2. [Related pubchem assays (depositor defined):AID1961, AID1965]; assay type: functional
[6] = biological target: T3, Cannabinoid receptor 1; assay: SAR analysis of agonists of the Cannabinoid Receptor 1 using an Image-Based Assay - Set 3. [Related pubchem assays (depositor defined):AID1961, AID1965]; assay type: functional
[7] = biological target: T2, G-protein coupled receptor 35; assay: SAR analysis of Antagonists of the GPR35 Receptor using an Image-Based Assay - Set 4. [Related pubchem assays (depositor defined):[…]]; assay type: functional
[8] = biological target: G-protein coupled receptor 55 (Homo sapiens, UniProt Q9Y2T6); assay: SAR analysis of selective Agonists of GPR55 using an Image-Based Assay - Set 2. [Related pubchem assays (depositor defined):AID1961, AID1965]; assay type: functional
[9] = biological target: T4, Cannabinoid receptor 2; assay: SAR analysis of antagonists of the Cannabinoid Receptor 2 using an Image-Based Assay - Set 2. [Related pubchem assays (depositor defined):AID1961, AID1965]; assay type: functional
[10] = biological target: Sphingosine 1-phosphate receptor 3 (Homo sapiens, UniProt Q99500); assay: Late stage counterscreen assay for S1P4 antagonists: Fluorescence dose response cell-based screening assay for antagonists of the Sphingosine 1-Phosphate Receptor 3 (S1P3). [Related pubchem assays (depositor defined):AID1510, AID1524, AID1692, AID1853, AID2332, AID489009, AID489017]; assay type: functional
[11] = biological target: Sphingosine 1-phosphate receptor 5 (Homo sapiens, UniProt Q9H228); assay: Late stage counterscreen assay for S1P4 antagonists: Fluorescence dose response cell-based screening assay for antagonists of the Sphingosine 1-Phosphate Receptor 5 (S1P5). [Related pubchem assays (depositor defined):AID1510, AID1524, AID1692, AID1853, AID2332, AID489009, AID489017]; assay type: functional
[12] = biological target: Sphingosine 1-phosphate receptor 2 (Homo sapiens, UniProt O95136); assay: Late stage counterscreen assay for S1P4 antagonists: Fluorescence dose response cell-based screening assay for antagonists of the Sphingosine 1-Phosphate Receptor 2 (S1P2). [Related pubchem assays (depositor defined):AID1510, AID1524, AID1692, AID1853, AID2332, AID489009, AID489017]; assay type: functional
[13] = biological target: Sphingosine 1-phosphate receptor 1 (Homo sapiens, UniProt P21453); assay: Fluorescence-based counterscreen assay for S1P4 agonists: Cell-based dose response high throughput screening assay to identify agonists of the Sphingosine 1-Phosphate Receptor 1 (S1P1). [Related pubchem assays (depositor defined):AID1509, AID1523, AID1801, AID463107, AID463118, AID463119, AID463122, AID463123, AID463129, AID463225, AID504400, AID504460]; assay type: functional
[14] = biological target: T5, Sphingosine 1-phosphate receptor 4 (Homo sapiens, UniProt O95977); assay: Fluorescence dose response cell-based high throughput screening assay for agonists of the Sphingosine 1-Phosphate Receptor 4 (S1P4). [Related pubchem assays: 1509 (Primary screen.), 1523 (Confirmation screen in triplicates.)]; assay type: functional
T5 sequence (O95977 whole entry): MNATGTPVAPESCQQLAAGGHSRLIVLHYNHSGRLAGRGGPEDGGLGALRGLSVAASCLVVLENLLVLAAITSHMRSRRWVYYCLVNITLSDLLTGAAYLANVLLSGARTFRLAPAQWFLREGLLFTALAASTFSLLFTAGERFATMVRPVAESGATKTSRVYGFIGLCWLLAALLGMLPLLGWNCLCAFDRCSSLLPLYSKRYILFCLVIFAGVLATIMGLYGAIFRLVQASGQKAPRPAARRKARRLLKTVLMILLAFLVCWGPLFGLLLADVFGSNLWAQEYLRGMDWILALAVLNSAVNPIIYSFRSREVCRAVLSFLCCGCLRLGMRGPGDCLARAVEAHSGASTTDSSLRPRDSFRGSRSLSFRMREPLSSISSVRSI

[15] = biological target: Peroxisome proliferator-activated receptor gamma (Homo sapiens, UniProt P37231); assay: PPARg transcriptional activation, reporter cells – cell-based, luminescence, assay provider, dose response (AID 504447); assay type: functional
[16] = biological target: Dual specificity protein phosphatase 6 (Rattus norvegicus, UniProt Q64346); assay: inhibition of rat DUSP6 enzyme activity – biochemical, in vitro, primary screen (AID 425)
[17] = biological target: T6, Dual specificity protein phosphatase 3 (Homo sapiens, UniProt P51452); assay: VHR1 phosphatase inhibitors, biochemical (AID 1878)
[18] = biological target: T6, Dual specificity protein phosphatase 3; assay: VHR1 phosphatase inhibitors, primary screen, biochemical, absorbance, uHTS (AID 1654)
[19] = biological target: Coagulation factor XII (Homo sapiens, UniProt P00748); assay type: functional;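 also: activated factor XIIa alpha cleaving a fluorogenic AMC peptide substrate; inhibitor potency from loss of enzyme activity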
[20] = biological target: Voltage-dependent T-type calcium channel subunit alpha-1H (Homo sapiens, UniProt O95180); assay: human CACNA1H calcium influx blockade – cell-based, synthetic library set 2, HEK293 HH8, Fluo-4, SAR follow-up (AID 493023); assay type: functional
[21] = biological target: Signal transducer and activator of transcription 3 (Homo sapiens, UniProt P40763); assay: STAT3 blockade with qPCR and toxicity readouts – cell-based, STAT1 panel, cytotoxicity, late-stage follow-up, panel member STAT3 Inhibition (AID 2078)
[22] = biological target: Signal transducer and activator of transcription 1-alpha/beta (Homo sapiens, UniProt P42224); assay: STAT3 blockade with qPCR and toxicity readouts – cell-based, STAT1 panel, cytotoxicity, late-stage follow-up, panel member STAT1 Inhibition (AID 2078)
[23] = biological target: T6, Dual specificity protein phosphatase 3; assay: SAR VHR1 Fluorescent Assay for In Vitro dose response studies Set 2. [Related pubchem assays (depositor defined):AID1654, AID1661, AID1878]; assay type: functional
[24] = biological target: T7, Kappa-type opioid receptor (Homo sapiens, UniProt P41145); assay: kappa opioid receptor activation potency – imaging, image-based, SAR follow-up (AID 2359); assay type: functional
[25] = biological target: T8, Delta-type opioid receptor (Homo sapiens, UniProt P41143); assay: DOR agonists, SAR follow-up, image-based (AID 2370); assay type: functional
[26] = biological target: T8, Delta-type opioid receptor; assay: delta opioid receptor blockers – image-based, SAR follow-up (AID 2357); assay type: functional
[27] = biological target: T7, Kappa-type opioid receptor; assay: kappa opioid receptor blockers, image-based, SAR follow-up (AID 2348); assay type: functional
[28] = biological target: T7, Kappa-type opioid receptor; assay: kappa opioid receptor blockers, cell-based, luminescence, beta-arrestin, SAR follow-up (AID 2285); assay type: functional
[29] = biological target: T9, Tyrosine-protein phosphatase non-receptor type 7 (Homo sapiens, UniProt P35236); assay: SAR analysis of chemical inhibitors of HePTP using a Fluorescent assay - Set 2. [Related pubchem assays (depositor defined):AID1059, AID1077, AID1661, AID2085, AID521]; assay type: functional
T9 sequence (P35236 whole entry): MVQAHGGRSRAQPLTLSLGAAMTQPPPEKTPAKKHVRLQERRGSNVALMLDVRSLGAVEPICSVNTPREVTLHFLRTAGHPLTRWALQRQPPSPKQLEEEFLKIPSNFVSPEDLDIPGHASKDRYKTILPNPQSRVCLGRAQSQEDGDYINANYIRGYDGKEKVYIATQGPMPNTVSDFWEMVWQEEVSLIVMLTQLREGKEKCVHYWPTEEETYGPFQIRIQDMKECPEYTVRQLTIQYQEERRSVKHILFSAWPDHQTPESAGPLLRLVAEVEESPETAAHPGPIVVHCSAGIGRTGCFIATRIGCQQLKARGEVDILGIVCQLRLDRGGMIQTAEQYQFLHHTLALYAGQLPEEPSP

[30] = biological target: T10, Mu-type opioid receptor (Homo sapiens, UniProt P35372); assay: mu opioid receptor activators, image-based, SAR follow-up (AID 2352); assay type: functional
[31] = biological target: T10, Mu-type opioid receptor; assay: mu opioid receptor blockers – image-based, SAR follow-up (AID 2420); assay type: functional;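 also: compounds added before stimulation of receptor with agonist DAMGO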
[32] = biological target: T5, Sphingosine 1-phosphate receptor 4; assay: Late-stage fluorescence dose response cell-based assay to identify agonists of the Sphingosine 1-Phosphate Receptor 4 (S1P4): purchased compounds EC50. [Related pubchem assays (depositor defined):AID1509, AID1523, AID1563, AID1686, AID1701, AID1801]; assay type: functional

T7 sequence (P41145 whole entry): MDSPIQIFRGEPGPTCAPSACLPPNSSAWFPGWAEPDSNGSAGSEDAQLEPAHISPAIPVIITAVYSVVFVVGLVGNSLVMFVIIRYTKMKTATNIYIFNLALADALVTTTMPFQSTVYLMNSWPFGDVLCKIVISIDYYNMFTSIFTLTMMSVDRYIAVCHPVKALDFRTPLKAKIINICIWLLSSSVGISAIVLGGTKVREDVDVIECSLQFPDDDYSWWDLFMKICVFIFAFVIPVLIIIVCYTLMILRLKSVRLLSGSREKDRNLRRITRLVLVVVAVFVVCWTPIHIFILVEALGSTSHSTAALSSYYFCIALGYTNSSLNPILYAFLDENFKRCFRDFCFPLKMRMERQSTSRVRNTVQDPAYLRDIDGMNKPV
T6 sequence (P51452 whole entry): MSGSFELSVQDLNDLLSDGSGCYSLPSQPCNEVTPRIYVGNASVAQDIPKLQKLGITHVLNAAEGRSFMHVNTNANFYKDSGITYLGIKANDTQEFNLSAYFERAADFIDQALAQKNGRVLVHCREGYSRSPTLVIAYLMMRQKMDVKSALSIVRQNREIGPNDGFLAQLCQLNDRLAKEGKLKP
T8 sequence (P41143 whole entry): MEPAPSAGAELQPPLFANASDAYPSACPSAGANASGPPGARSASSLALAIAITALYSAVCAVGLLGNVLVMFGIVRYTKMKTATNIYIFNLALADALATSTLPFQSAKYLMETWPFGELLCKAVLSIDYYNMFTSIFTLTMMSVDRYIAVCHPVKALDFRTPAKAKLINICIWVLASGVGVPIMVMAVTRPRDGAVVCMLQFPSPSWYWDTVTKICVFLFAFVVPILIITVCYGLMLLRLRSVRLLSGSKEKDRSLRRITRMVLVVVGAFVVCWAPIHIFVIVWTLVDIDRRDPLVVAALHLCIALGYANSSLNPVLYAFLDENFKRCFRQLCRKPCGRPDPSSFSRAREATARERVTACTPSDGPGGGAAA
T4 sequence (P34972 whole entry): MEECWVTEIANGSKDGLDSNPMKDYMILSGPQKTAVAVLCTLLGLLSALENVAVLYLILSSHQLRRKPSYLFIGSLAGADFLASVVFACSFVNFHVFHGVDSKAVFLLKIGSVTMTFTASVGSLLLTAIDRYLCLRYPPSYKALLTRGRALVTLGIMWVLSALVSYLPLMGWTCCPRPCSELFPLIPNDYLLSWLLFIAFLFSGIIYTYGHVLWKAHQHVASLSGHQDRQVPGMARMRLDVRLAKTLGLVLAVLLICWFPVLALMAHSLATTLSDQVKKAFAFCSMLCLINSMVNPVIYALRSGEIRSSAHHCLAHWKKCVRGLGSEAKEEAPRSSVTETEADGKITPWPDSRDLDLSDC
T10 sequence (P35372 whole entry): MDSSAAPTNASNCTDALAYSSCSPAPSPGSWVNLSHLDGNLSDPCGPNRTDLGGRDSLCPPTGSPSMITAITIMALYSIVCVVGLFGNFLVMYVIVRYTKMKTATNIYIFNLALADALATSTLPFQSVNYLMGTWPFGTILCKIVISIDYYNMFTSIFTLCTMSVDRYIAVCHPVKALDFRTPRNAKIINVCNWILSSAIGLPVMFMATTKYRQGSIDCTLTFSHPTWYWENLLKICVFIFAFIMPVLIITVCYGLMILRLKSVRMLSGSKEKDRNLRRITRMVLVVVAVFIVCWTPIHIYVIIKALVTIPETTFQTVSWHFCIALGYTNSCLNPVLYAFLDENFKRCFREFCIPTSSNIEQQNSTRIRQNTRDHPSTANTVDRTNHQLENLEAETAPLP
T1 sequence (P98170 whole entry): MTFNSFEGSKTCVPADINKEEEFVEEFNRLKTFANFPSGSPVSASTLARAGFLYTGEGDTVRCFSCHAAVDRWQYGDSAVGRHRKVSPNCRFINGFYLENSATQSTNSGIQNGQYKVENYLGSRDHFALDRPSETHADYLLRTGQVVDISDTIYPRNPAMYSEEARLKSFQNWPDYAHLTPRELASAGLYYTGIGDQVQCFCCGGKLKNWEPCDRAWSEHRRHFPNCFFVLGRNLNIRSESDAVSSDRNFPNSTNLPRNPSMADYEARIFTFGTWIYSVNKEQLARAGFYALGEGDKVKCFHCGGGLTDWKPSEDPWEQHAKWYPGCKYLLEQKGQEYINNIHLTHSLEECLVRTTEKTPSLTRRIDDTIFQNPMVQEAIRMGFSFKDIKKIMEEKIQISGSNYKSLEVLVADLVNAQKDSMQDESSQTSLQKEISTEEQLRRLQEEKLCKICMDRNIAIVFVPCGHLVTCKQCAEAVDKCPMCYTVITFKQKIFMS
T3 sequence (P21554 whole entry): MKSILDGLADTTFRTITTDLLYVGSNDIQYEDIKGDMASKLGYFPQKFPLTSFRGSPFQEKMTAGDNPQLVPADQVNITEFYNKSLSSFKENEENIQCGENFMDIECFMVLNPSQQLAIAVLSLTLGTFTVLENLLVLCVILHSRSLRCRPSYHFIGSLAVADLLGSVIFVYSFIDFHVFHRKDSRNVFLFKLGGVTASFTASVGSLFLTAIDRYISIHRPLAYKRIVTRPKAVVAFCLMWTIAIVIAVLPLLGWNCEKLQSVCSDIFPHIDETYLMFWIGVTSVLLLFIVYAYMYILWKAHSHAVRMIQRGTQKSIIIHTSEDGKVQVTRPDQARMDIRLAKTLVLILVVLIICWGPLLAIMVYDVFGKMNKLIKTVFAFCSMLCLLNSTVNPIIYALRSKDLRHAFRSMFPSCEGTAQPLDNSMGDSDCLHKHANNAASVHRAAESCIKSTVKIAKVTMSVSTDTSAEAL
T2 sequence (Q9HC97 whole entry): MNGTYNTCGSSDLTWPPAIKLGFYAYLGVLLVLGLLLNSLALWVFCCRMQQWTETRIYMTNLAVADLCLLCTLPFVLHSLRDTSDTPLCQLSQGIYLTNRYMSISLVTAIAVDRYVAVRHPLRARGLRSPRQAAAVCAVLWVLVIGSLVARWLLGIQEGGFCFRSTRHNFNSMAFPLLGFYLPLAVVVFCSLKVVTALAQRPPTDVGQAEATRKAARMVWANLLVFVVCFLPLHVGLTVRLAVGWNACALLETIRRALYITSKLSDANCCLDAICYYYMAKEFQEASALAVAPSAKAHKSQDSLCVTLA
Chain of Peroxisome proliferator-activated receptor gamma (P37231 whole entry): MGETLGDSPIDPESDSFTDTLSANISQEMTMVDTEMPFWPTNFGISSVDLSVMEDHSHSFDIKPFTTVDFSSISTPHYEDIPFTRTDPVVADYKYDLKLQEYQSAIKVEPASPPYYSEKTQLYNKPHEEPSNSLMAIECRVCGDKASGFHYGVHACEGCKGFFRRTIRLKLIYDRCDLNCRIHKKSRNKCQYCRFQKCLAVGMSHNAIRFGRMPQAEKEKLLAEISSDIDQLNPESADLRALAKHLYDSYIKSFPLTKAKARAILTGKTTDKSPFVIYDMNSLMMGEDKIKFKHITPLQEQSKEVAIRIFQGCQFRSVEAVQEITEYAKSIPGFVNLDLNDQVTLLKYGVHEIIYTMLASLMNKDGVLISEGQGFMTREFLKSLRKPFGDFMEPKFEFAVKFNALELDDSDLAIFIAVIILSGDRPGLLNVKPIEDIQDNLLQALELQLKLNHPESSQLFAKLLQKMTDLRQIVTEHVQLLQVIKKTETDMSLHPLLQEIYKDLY
Chain of Signal transducer and activator of transcription 1-alpha/beta (P42224 whole entry): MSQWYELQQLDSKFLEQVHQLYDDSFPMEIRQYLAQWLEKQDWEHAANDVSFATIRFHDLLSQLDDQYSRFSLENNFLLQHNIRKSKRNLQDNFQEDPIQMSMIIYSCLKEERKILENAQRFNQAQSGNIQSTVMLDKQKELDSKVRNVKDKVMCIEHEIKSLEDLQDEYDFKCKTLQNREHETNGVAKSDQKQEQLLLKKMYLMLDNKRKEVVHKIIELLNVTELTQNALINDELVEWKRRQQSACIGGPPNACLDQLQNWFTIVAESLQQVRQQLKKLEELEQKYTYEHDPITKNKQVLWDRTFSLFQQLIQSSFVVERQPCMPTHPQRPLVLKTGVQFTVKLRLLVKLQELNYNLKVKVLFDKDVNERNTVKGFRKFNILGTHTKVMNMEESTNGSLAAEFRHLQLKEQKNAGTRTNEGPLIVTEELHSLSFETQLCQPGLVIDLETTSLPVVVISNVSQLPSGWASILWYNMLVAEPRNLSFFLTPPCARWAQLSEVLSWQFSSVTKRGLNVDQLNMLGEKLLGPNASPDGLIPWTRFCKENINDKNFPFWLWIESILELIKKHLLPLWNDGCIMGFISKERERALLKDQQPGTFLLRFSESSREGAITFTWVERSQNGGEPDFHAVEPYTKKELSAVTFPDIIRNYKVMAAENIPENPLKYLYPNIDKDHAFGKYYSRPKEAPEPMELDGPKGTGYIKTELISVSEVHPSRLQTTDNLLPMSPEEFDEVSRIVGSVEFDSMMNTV
Chain of Sphingosine 1-phosphate receptor 5 (Q9H228 whole entry): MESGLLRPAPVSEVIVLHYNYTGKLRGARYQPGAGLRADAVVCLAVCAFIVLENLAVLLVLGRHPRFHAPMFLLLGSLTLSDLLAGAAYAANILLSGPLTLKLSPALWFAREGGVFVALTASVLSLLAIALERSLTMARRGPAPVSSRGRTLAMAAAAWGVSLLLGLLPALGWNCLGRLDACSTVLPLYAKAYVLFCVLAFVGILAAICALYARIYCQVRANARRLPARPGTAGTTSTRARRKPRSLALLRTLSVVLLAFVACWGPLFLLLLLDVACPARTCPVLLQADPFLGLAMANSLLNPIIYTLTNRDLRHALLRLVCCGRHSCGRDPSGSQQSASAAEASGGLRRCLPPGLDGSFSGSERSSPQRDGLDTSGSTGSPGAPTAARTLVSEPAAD
Chain of G-protein coupled receptor 55 (Q9Y2T6 whole entry): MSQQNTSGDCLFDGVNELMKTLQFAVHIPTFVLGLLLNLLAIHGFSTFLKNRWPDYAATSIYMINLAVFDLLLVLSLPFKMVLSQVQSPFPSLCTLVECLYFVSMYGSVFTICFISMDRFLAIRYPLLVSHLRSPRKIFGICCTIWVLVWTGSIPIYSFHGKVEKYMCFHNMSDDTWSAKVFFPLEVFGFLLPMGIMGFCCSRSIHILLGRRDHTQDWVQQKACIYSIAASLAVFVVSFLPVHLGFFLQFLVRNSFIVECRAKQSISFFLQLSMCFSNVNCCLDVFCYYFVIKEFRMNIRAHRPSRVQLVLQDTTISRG

CCNC(=O)CSc1nnc(-c2cccc(S(=O)(=O)N(CC)CC)c2)n1CCc1ccccc1
IC50 [1]: > 100 µM (inactive)
IC50 [2]: > 100 µM (not active)

COc1ccc(S(=O)(=O)N2CCOCC2)cc1NC(=O)c1ccc(-n2nc(C)cc2C)cc1
EC50 [3]: > 32 µM (inactive)
IC50 [4]: 20.3 µM (inactive)
EC50 [5]: > 32 µM (inactive)
EC50 [6]: > 32 µM (inactive)
IC50 [7]: > 32 µM (inactive)
EC50 [8]: 0.831 µM (active)
IC50 [9]: > 32 µM (inactive)

Cc1cccc(C)c1NC(=O)c1ccc(-c2cc(Cl)ccc2Cl)o1
IC50 [10]: 19.5 µM (inactive)
IC50 [11]: > 25 µM (inactive)
IC50 [12]: 7.88 µM (active)

COc1cccc(C2CN(c3ccc(F)cc3F)N=C2c2cccs2)c1OC (configuration not stated)
EC50 [13]: 7.49 µM (active)
EC50 [14]: 11.1 µM (not active)

O=C(Nc1ccccc1Cl)C(=O)c1cn(CC(=O)N2CCOCC2)c2ccccc12
EC50 [15]: 2 µM (active)

O=C(O)C1CCC(N2C(=O)c3c(Cl)c(Cl)c(Cl)c(Cl)c3C2=O)CC1 (configuration not stated)
IC50 [16]: 113 µM (not active)
IC50 [17]: 3.6 µM (active)
IC50 [18]: 5.1 µM (active)

CC(C(=O)Oc1ccc2c(c1)OCO2)N1C(=O)c2ccccc2C1=O (configuration not stated)
IC50 [19]: > 50 µM (inactive)

CC(C)(C)CCN1CCC[C@H](NC(=O)COc2ccccc2Cl)C1
EC50 [20]: 10 µM (active)

c1ccc(Cc2nc(N3CCC(Cc4ccccc4)CC3)c3c4c(sc3n2)CCCC4)cc1
IC50 [21]: > 55.7 µM (inactive)
IC50 [22]: > 55.7 µM (inactive)

Cc1ccc(NC(=S)NC(NC(=O)OCc2ccccc2)C(Cl)(Cl)Cl)cc1 (configuration not stated)
IC50 [23]: > 100 µM (inactive)
EC50 [24]: > 32 µM (inactive)
EC50 [25]: > 32 µM (inactive)
IC50 [26]: > 32 µM (inactive)
IC50 [27]: > 32 µM (inactive)
IC50 [28]: > 10 µM (inactive)
IC50 [29]: > 100 µM (inactive)
EC50 [30]: > 32 µM (inactive)
IC50 [31]: > 32 µM (inactive)

Cc1ccc(OCc2ccc(Cl)cc2)c([N+](=O)[O-])n1
EC50 [32]: > 50 µM (inactive)
